The values that follow come from patent publication US7893085B2, “Aza-benzothiophenyl compounds and methods of use” (Genentech, Inc, priority 2006, dated 2011).

Assay [1] deals with HCT116 human colorectal carcinoma or A375 human malignant melanoma cells. As to the kind of experiment: Cell proliferation assay (CellTiter-Glo). The format is cell-based. As to conditions: in either one of the cell lines (HCT116, A375), 72 h. As for the experimental part:
Compounds are tested in a cell proliferation assay using the following cell lines:
HCT116 human colbrectal carcinoma (ATCC)
(§1) A375 human malignant melanoma (ATCC)
Both cell lines are maintained in DMEMIF12 (1:1) media (Gibco) supplemented with 10% FCS at 37° C. in a 5% CO2 humidified incubator.
Cells are seeded in 96-well plates at 2,000 cells/well and after 24 hours they are exposed to different concentrations of compounds in 0.83% DMSO. Cells are grown for a further 72 h, and an equal volume of CellTiter-Glo reagent (Promega) is added to each well. This lyses the cells and generates a luminescent signal proportional to the amount of ATP released (and therefore proportional to the number of cells in the well) that can be detected using a multiwell luminometer.
The EC50 is defined as the concentration at which a given compound achieves 50% inhibition of control. EC50 values are calculated using the XLfit software package (version 2.0.5).
On the technique in general: In ATP-based viability assays light output follows the ATP content of the culture.

Assay [2] concerns cellular p-ERK in HCT116 or A375 cells. As to the kind of experiment: Phospho-ERK cell-based assay (ELISA). As to conditions: Homo sapiens; in either one of the cell lines (HCT116, A375); 2 h or 24 h. Here is the method: Compounds are tested in a cell-based phospho-ERK ELISA using the following cell lines:
HCT116 human colorectal carcinoma (ATCC)
as §1
Both cell lines are maintained in DMEM/F12 (1:1) media (Gibco) supplemented with 10% FCS at 37° C. in a 5% CO2 humidified incubator.
Cells are seeded in 96-well plates at 2,000 cells/well and after 24 h they are exposed to different concentrations of compounds in 0.83% DMSO. Cells are grown for a further 2 h or 24 h, fixed with formaldehyde (2% final) and permeabilised with methanol. Following blocking with TBST-3% BSA, fixed cells are incubated with primary antibody (anti-phospho ERK from rabbit) over-night at 4° C. Cells are incubated with Propidium Iodide (DNA fluorescent dye) and detection of cellular p-ERK is performed using an anti-rabbit secondary antibody conjugated to the fluorescent Alexa Fluor 488 dye (Molecular probes). The fluorescence is analysed using the Acumen Explorer (lTP Labtech), a laser-scanning microplate cytometer, and the Alexa Fluor 488 signal is normalised to the PI signal (proportional to cell number).
The EC50 is defined as the concentration at which a given compound achieves a signal half way between the baseline and the maximum response. EC50 values are calculated using the XLfit software package (version 2.0.5).
(In general: An ELISA detects its analyte on a solid surface through an enzyme-linked reagent.)

As usually defined, the EC50 is the midpoint of the concentration-response curve. Read a high EC50 as a less potent agent. On to `O=C(NOCCO)c1sc2ccncc2c1Nc1ccc(I)cc1F` [Example 10, 3-(2-Fluoro-4-iodo-phenylamino)-thieno[3,2-c]pyridine-2-carboxylic acid (2-hydroxyethoxy)-amide], for which the EC50 in assay [1] and in assay [2] was < 10 µM throughout.

On to `O=C(NOC[C@H](O)CO)c1sc2ccncc2c1Nc1ccc(I)cc1F` [Example 5, 3-(2-Fluoro-4-iodo-phenylamino)-thieno[3,2-c]pyridine-2-carboxylic acid ((R)-2,3-dihydroxy-propoxy)-amide], for which the half-maximal effective concentration (EC50) in assay [1] and in assay [2] was < 10 µM in each case.

For the compound `O=C(NOCCO)c1sc2c(F)cncc2c1Nc1ccc(I)cc1F` [Example 11, 7-Fluoro-3-(2-fluoro-4-iodo-phenylamino)-thieno[3,2-c]pyridine-2-carboxylic acid (2-hydroxy-ethoxy)-amide], in assay [2], the half-maximal effective concentration (EC50) is < 10 µM.

In the case of `CSc1ccc(Nc2c(C(=O)NOCCO)sc3ccncc23)c(F)c1` [Example 12, 3-(2-Fluoro-4-methylsulfanyl-phenylamino)-thieno[3,2-c]pyridine-2-carboxylic acid (2-hydroxy-ethoxy)-amide], the half-maximal effective concentration (EC50) in assay [2] was < 10 µM.
